pKi: −log10 of the molar value.
Key:
Carbonic anhydrase 2 [1] = biological target: T1, Carbonic anhydrase 2 (Homo sapiens, UniProt P00918); test: Binding affinity to carbonic anhydrase II (unknown origin) fragment assessed as rate of protein modification by measuring inactivation rate constant (Kinact)
Carbonic anhydrase 2 [2] = biological target: T1, Carbonic anhydrase 2; test: Rate of protein modification at carbonic anhydrase II (unknown origin) fragment assessed as inhibition constant
[3] = Reactivity of SuTEx assessed as aryl-LG modifications by measuring half life by HLPC analysis; type: physicochemical
[4] = biological target: T2, Chromobox protein homolog 8 (Homo sapiens) (UniProt Q9HC52); test: Binding affinity to CBX8 (unknown origin) assessed as rate constant of covalent modification (Kinact)
T2 sequence (whole entry): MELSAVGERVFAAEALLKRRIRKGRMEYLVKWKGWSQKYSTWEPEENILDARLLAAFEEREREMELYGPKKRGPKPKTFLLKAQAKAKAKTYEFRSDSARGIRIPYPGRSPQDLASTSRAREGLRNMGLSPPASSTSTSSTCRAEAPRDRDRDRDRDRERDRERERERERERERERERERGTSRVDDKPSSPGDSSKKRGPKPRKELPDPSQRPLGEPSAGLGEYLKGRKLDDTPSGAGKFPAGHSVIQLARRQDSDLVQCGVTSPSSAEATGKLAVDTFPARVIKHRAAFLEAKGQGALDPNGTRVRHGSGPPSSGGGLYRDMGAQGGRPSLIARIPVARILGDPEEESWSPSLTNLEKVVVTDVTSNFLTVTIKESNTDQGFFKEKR

[5] = biological target: Replicase polyprotein 1ab (Severe acute respiratory syndrome coronavirus 2, UniProt P0DTD1); test: Binding affinity to SARS-CoV-2 cysteine protease-Mpro assessed as inhibition constant
[6] = biological target: Replicase polyprotein 1ab (Severe acute respiratory syndrome coronavirus 2) (UniProt P0DTD1); test: Binding affinity to SARS-CoV-2 cysteine protease-Mpro assessed as inactivation rate constant (Kinact)
[7] = GSH reactivity in PBS buffer at pH 7.4 assessed as half life; type: ADME
[8] = Chemical stability of the compound in pH 7.4 buffer assessed as half life; type: physicochemical
[9] = Reactivity of SuTEx assessed as aryl-AG modifications by measuring half life by HLPC analysis; type: physicochemical
Homo sapiens [10] = species on record: Homo sapiens; test: Binding affinity to wild type Hsp90 (unknown origin) assessed as rate of modification half life
Homo sapiens [11] = species on record: Homo sapiens; test: Inhibition of wild type Hsp90 (unknown origin) assessed as inactivation rate constant (Kinact)
[12] = biological target: Tyrosine-protein kinase BTK (Homo sapiens, UniProt Q06187); settings: A-431, dose 1.0 µM
[13] = GSH reactivity in PBS buffer at pH 8 assessed as second-order reaction rate constants upto 200 uM by DTNB assay; type: ADME; settings: pH 8, 200 µM
[14] = GSH reactivity in PBS buffer at pH 8 at 14 degC assessed as half life upto 200 uM; type: ADME
[15] = biological target: T3, Tyrosine-protein kinase ABL1 (Homo sapiens, UniProt P00519); test: Inhibition of recombinant ABL kinase (unknown origin) assessed as inactivation rate constant (Kinact)
[16] = biological target: T3, Tyrosine-protein kinase ABL1; test: Inhibition of recombinant ABL kinase (unknown origin) assessed as inhibition constant
[17] = Cytotoxicity against African green monkey Vero E6 cells; type: toxicity, cell-based, Vero C1008; settings: chlorocebus sabaeus
[18] = Cysteine-reactive in peptide assessed as half life using fluorogenic monochlorobimane/zinc complex by measuring fluorescence intensity; type: ADME; settings: cysteine-containing peptide

T3 sequence (P00519 whole entry): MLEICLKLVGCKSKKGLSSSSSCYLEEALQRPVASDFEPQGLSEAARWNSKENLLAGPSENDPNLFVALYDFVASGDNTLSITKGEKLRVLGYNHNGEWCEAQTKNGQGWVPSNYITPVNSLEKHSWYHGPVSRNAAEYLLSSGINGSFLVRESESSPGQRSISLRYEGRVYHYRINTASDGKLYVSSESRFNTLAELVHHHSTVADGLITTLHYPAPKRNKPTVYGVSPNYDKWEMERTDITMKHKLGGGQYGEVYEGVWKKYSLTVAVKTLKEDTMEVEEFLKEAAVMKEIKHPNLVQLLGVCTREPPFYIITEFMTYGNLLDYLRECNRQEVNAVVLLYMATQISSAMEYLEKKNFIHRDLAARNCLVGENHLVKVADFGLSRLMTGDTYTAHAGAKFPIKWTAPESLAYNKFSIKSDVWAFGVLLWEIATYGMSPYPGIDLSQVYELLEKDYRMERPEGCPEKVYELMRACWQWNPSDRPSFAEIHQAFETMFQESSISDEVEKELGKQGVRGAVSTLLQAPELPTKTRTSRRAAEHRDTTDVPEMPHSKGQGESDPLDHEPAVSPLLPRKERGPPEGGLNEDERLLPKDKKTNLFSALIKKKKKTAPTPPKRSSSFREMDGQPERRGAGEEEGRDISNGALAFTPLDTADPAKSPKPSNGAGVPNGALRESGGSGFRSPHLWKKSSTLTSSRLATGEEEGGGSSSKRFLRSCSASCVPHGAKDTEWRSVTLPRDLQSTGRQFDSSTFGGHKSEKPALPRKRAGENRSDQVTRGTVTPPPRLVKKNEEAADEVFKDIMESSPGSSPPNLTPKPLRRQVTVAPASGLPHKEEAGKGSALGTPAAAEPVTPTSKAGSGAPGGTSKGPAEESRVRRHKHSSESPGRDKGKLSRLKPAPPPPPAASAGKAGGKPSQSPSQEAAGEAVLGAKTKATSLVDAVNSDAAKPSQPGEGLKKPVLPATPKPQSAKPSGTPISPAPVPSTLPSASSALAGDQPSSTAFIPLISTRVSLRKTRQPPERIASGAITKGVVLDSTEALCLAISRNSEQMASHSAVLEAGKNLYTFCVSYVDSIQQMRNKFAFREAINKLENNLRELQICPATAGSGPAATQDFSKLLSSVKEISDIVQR
Tyrosine-protein kinase BTK, sequence (Q06187 whole entry): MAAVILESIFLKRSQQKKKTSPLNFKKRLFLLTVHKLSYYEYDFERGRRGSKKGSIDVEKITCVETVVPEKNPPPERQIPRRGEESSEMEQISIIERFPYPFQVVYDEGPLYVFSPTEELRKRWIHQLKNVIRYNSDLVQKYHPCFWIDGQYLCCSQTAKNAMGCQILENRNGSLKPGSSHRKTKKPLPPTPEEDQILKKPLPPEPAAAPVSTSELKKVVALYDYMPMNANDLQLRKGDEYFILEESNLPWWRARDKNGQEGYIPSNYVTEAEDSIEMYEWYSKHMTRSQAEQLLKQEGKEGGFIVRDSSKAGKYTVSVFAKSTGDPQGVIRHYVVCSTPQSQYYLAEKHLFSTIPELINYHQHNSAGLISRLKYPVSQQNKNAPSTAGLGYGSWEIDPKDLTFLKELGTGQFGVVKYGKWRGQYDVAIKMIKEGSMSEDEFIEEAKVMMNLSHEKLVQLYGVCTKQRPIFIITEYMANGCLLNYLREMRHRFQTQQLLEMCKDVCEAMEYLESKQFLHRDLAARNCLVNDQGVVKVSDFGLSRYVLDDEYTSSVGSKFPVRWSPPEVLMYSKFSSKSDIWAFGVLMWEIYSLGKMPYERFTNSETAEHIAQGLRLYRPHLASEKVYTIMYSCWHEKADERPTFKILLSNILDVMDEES

NS(=O)(=O)c1ccc(CCNS(=O)(=O)c2ccc(S(=O)(=O)F)cc2)cc1
Kinact (Carbonic anhydrase 2 [1]): 2.1 10^-5/s
pKi (Carbonic anhydrase 2 [2]): > 5.30

O=S(=O)(c1ccc(F)cc1)n1cnc(-c2ccc(C(F)(F)F)cc2)n1
half-life [3]: 0.0533 h
K [4]: 2.9 10^-3/M/s

O=C(NCCc1cccc(F)c1)[C@@H](c1cncnc1)N(C(=O)[C@H](F)Cl)c1ccc(S(F)(F)(F)(F)F)cc1
pKi [5]: 5.87
Kinact [6]: 5.6 10^-3/s

CC#CC1=Nc2ccccc2C(C)(C)N1
half-life [7]: 0.025 h
half-life [8]: > 167 h

NC(=O)C(Br)Br
half-life [7]: < 1.67 h

O=C(NCCc1cccc(F)c1)[C@@H](c1cncnc1)N(C(=O)[C@@H](F)Cl)c1ccc(S(F)(F)(F)(F)F)cc1
pKi [5]: 4.27
Kin [6]: 1.1 10^-3/s

COc1ccc(-c2ncn(S(=O)(=O)c3ccc(-c4ccccc4)cc3)n2)cc1
half-life [9]: 0.288 h

COc1cc(OC)cc(C(=O)C23CC2C3)c1 (stereo not given)
half-life [7]: 32.7 h

Nc1ncnc2c1nc(Sc1cc3c(cc1I)OCO3)n2C[C@H]1CCCN(Cc2cccc(S(=O)(=O)F)c2)C1
T1/2 (Homo sapiens [10]): 5 min
Kinact (Homo sapiens [11]): 2.17 10^-3/s

C#Cc1cccc(Oc2ccc(-c3nn(CCc4ccccc4N(C)C(=O)C45CC4C5)c4ncnc(N)c34)cc2)c1 (stereo not given)
half-life [7]: 32.7 h
V0 [12]: 9.7 10^-5/s

NC(=O)C(Cl)Br (stereo not given)
half-life [7]: < 1.67 h

CS(=O)(=O)OCC(=O)NCc1ccccc1
K [13]: 0.134 M⁻¹ s⁻¹

C#CCOCCOCCOc1cccc(N2CCN(C(=O)C(F)(F)Br)CC2)c1
half-life [7]: 33.4 h

NS(=O)(=O)c1ccc(CCNC(=O)c2cccc(S(=O)(=O)F)c2)cc1
Kinact (Carbonic anhydrase 2 [1]): 0.51 10^-5/s
pKi (Carbonic anhydrase 2 [2]): > 5.30

O=C(NCCc1cccc(F)c1)[C@H](c1cncnc1)N(C(=O)[C@H](F)Cl)c1ccc(S(F)(F)(F)(F)F)cc1
pKi [5]: 4.19
Kinact [6]: 4.3 10^-3/s

O=C(COS(=O)(=O)NCc1ccccc1)NCc1ccccc1
K [13]: 0.02 M⁻¹ s⁻¹
half-life at up to 200 µM [14]: ~12 h

NS(=O)(=O)c1cccc(CNC(=O)Cc2ccc(S(=O)(=O)F)cc2)c1
Kinact (Carbonic anhydrase 2 [1]): 0.73 10^-5/s
pKi (Carbonic anhydrase 2 [2]): > 5.30

CC(NC(=O)c1cccc(S(=O)(=O)F)c1)c1cccc(S(N)(=O)=O)c1 (stereo not given)
Kinact (Carbonic anhydrase 2 [1]): 0.24 10^-5/s
pKi (Carbonic anhydrase 2 [2]): 4.28

COc1ccc(-c2ncn(S(=O)(=O)c3ccc(F)cc3)n2)cc1
half-life [3]: 0.237 h

CC(NC(=O)c1ccc(S(=O)(=O)F)cc1)c1cccc(S(N)(=O)=O)c1 (stereo not given)
Kinact (Carbonic anhydrase 2 [1]): 0.45 10^-5/s
pKi (Carbonic anhydrase 2 [2]): 4.48

NS(=O)(=O)c1cccc(CNC(=O)c2cccc(S(=O)(=O)F)c2)c1
Kinact (Carbonic anhydrase 2 [1]): 21 10^-5/s
pKi (Carbonic anhydrase 2 [2]): > 5.30

CC(NS(=O)(=O)c1cccc(S(=O)(=O)F)c1)c1cccc(S(N)(=O)=O)c1 (stereo not given)
Kinact (Carbonic anhydrase 2 [1]): 3.9 10^-5/s
pKi (Carbonic anhydrase 2 [2]): 4.92

CC(NC(=O)Cc1ccc(S(=O)(=O)F)cc1)c1cccc(S(N)(=O)=O)c1 (stereo not given)
Kinact (Carbonic anhydrase 2 [1]): 0.97 10^-5/s
pKi (Carbonic anhydrase 2 [2]): 4.66

C#Cc1cc(OC)c(-c2ccc3nc(NC(=O)NCO)sc3c2)cc1C=O
Kinact [15]: 1.27 10^-3/s
pKi [16]: 7.89

CNS(=O)(=O)OCC(=O)NCc1ccccc1
K [13]: 0.029 M⁻¹ s⁻¹
half-life at up to 200 µM [14]: ~5 h

C[C@@H](NC(=O)[C@H](c1cccnc1)N(C(=O)C(Cl)Cl)c1ccc(-c2ccccc2)cc1)c1ccccc1
CC50 [17]: > 100 µM

NC(=O)CCl
half-life [7]: < 1.67 h
half-life [18]: 0.04 h

CN(C)C/C=C/C(N)=O
half-life [18]: 0.51 h

CN(C)S(=O)(=O)OCC(=O)NCc1ccccc1
K [13]: 0.012 M⁻¹ s⁻¹

O=S(=O)(c1ccccc1)C12CC1C2 (stereo not given)
half-life [7]: 11.8 h

CC(=O)N(C)c1ccccc1
half-life [7]: 0.333 h

C#CCOCCOCCOc1cccc(N2CCN(C(=O)C(C)(F)Br)CC2)c1 (stereo not given)
half-life [7]: > 167 h

NS(=O)(=O)c1ccc(CCNC(=O)c2ccc(S(=O)(=O)F)cc2)cc1
Kinact (Carbonic anhydrase 2 [1]): 0.89 10^-5/s
pKi (Carbonic anhydrase 2 [2]): > 5.30

CC(NS(=O)(=O)c1ccc(S(=O)(=O)F)cc1)c1cccc(S(N)(=O)=O)c1 (stereo not given)
Kinact (Carbonic anhydrase 2 [1]): 1.7 10^-5/s
pKi (Carbonic anhydrase 2 [2]): > 5.30
